Our source for the IC50 values is patent US10538555B2, “Macrocyclic inhibitors of the PD-1/PD-L1 and CD80(B7-1)/PD-L1 protein/protein interactions” (BRISTOL-MYERS SQUIBB COMPANY, priority 2014, dated 2020).

Where a SMILES comes first, the peptide text is derived from it. Bridges are numbered along the chain shown (N, C = ends). [ ]: non-standard residue; d: D form. ξ: configuration not given here. Trp(βS-Me) = C[C@@H](c1c[nH]c2ccccc12)[C@H](N)C(=O)O; Phe(3,4,5-F3) = N[C@@H](Cc1cc(F)c(F)c(F)c1)C(=O)O; Phe(3,4-F2) = N[C@@H](Cc1ccc(F)c(F)c1)C(=O)O; Phe(4-F) = N[C@@H](Cc1ccc(F)cc1)C(=O)O; d(cisHyp) = O=C(O)[C@H]1C[C@@H](O)CN1; Bta = N[C@@H](Cc1csc2ccccc12)C(=O)O; Hyp = O=C(O)[C@@H]1C[C@@H](O)CN1; NMeF = CN[C@@H](Cc1ccccc1)C(=O)O; dNMeF = CN[C@H](Cc1ccccc1)C(=O)O; dHyp = O=C(O)[C@H]1C[C@H](O)CN1; NMehSer = CN[C@@H](CCO)C(=O)O; NMeNle = CCCC[C@H](NC)C(=O)O; NMeV = CN[C@H](C(=O)O)C(C)C; ξY = NC(Cc1ccc(O)cc1)C(=O)O; dPip = O=C(O)[C@H]1CCCCN1; NMeA = CN[C@@H](C)C(=O)O; Orn = NCCC[C@H](N)C(=O)O; Dab = NCC[C@H](N)C(=O)O; Abu = CC[C@H](N)C(=O)O; ξC = NC(CS)C(=O)O; Sar = CNCC(=O)O

T1 sequence (Q9NZQ7 with tags, fused parts or gaps): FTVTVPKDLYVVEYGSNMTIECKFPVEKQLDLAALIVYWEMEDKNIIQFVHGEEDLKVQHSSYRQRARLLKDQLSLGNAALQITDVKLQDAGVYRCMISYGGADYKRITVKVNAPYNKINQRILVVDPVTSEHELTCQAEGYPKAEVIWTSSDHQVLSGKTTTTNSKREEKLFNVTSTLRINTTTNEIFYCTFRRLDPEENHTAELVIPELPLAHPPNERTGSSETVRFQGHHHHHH

One experiment has as its target T1, Human PD-L1/PD-1 (Homo sapiens, UniProt Q9NZQ7).
T1 construct: TVMV protease cleavage site (C); made in house; host or cells: HEK293T cells
The experiment can be described thus: HTRF Human PD-L1/PD-1 binding assay (PD-1-Ig/PD-L1-His). Conditions: PD-L1-His 10 nM, PD-1-Ig 20 nM; class symbol; read-out: HTRF Human PD-L1/PD-1 Binding Assay IC50 Range. An outline of the steps: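 HTRF read-out (665/620 nm ratio) after 30 min equilibration with Eu-cryptate anti-Ig mAb (1 nM) and APC anti-His mAb (20 nM). Peptides preincubated 15 min with PD-L1-His (10 nM), then PD-1-Ig (20 nM) added for 15 min.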
For the compound `CCCC[C@H]1C(=O)N(C)[C@@H](CCCC)C(=O)N[C@@H](CC(C)C)C(=O)N[C@H](C(=O)NCC(N)=O)CSCC(=O)N[C@@H](Cc2ccc(O)cc2)C(=O)N(C)[C@@H](C)C(=O)N[C@@H](CC(N)=O)C(=O)N(C)[C@@H](C)C(=O)N[C@@H](Cc2cnc[nH]2)C(=O)N[C@@H](CCC(N)=O)C(=O)N2C[C@H](O)C[C@H]2C(=O)N[C@@H](Cc2c[nH]c3ccccc23)C(=O)N[C@@H](CO)C(=O)N[C@@H](Cc2c[nH]c3ccccc23)C(=O)N1C` [Example 5234] ({CH2CO}-Y[NMeA]N[NMeA]HQ[Hyp]WSW[NMeNle][NMeNle]LCG-NH2; thioether N-14), the IC50 was 1 to 9.9 nM.

Regarding `CCCC[C@H]1C(=O)N2CCC[C@@H]2C(=O)N[C@@H](CO)C(=O)N[C@@H](CC)C(=O)N(C)[C@@H](Cc2ccccc2)C(=O)N[C@@H](Cc2ccc(O)cc2)C(=O)N(C)CC(=O)N[C@@H](Cc2csc3ccccc23)C(=O)N[C@@H](Cc2ccc(O)cc2)C(=O)N[C@@H](CC(C)C)C(=O)N[C@H](C(=O)NCC(N)=O)CSCC(=O)N[C@@H](Cc2ccccc2)C(=O)N(C)[C@@H](Cc2ccccc2)C(=O)N1C` [Example 10059] ({CH2CO}-F[NMeF][NMeNle][dP]S[Abu][NMeF]Y[Sar][Bta]YLCG-NH2; thioether N-13), the IC50 lay in the range of 10 to 99.9 nM.

For the compound `CCCC[C@H]1C(=O)N2C[C@@H](O)C[C@@H]2C(=O)N[C@@H](CC(=O)O)C(=O)N[C@@H](C(C)C)C(=O)N(C)[C@H](Cc2ccccc2)C(=O)N[C@@H](Cc2ccc(O)cc2)C(=O)N2CCC[C@@H]2C(=O)N[C@@H]([C@@H](C)c2c[nH]c3ccccc23)C(=O)N[C@@H](Cc2ccc(O)cc2)C(=O)N[C@@H](CC(C)C)C(=O)N[C@H](C(=O)NCC(N)=O)CSCC(=O)N[C@@H](Cc2cc(F)c(F)c(F)c2)C(=O)N(C)[C@@H](Cc2ccccc2)C(=O)N1C` [Example 10640] ({CH2CO}-[Phe(3,4,5-F3)][NMeF][NMeNle][dHyp]DV[dNMeF]Y[dP][Trp(βS-Me)]YLCG-NH2; thioether N-13), the IC50 lay within 10 to 99.9 nM.

Take `CCCC[C@H]1C(=O)N(C)[C@@H](C)C(=O)N[C@@H](CCCNC(=N)N)C(=O)NC(C(=O)NCC(N)=O)CSCC(=O)N[C@@H](Cc2ccc(O)cc2)C(=O)N(C)[C@@H](C)C(=O)N[C@@H](CC(N)=O)C(=O)N2CCC[C@H]2C(=O)N[C@@H](Cc2cnc[nH]2)C(=O)N[C@H](CO)C(=O)N2CCC[C@H]2C(=O)N[C@@H](Cc2c[nH]c3ccccc23)C(=O)N[C@@H](CO)C(=O)N[C@@H](Cc2c[nH]c3ccccc23)C(=O)N1C` (some centres unmarked) [Example 9117] ({CH2CO}-Y[NMeA]NPH[dS]PWSW[NMeNle][NMeA]R[ξC]G-NH2; thioether N-14): the IC50 lay in the range of 10 to 99.9 nM.

On to `CCCC[C@H]1C(=O)N2C[C@H](O)C[C@@H]2C(=O)N[C@@H](CC(=O)O)C(=O)N[C@@H](C(C)C)C(=O)N(C)[C@@H](Cc2ccccc2)C(=O)N[C@@H](CC(N)=O)C(=O)N2C[C@H](O)C[C@@H]2C(=O)N[C@@H](Cc2c[nH]c3ccccc23)C(=O)NC(Cc2ccc(O)cc2)C(=O)N[C@@H](CCC(=O)O)C(=O)N[C@H](C(=O)NCC(N)=O)CSCC(=O)N[C@@H](Cc2ccc(F)c(F)c2)C(=O)N(C)[C@@H](Cc2ccccc2)C(=O)N1C` (some centres unmarked) [Example 9317] ({CH2CO}-[Phe(3,4-F2)][NMeF][NMeNle][d(cisHyp)]DV[NMeF]N[d(cisHyp)]W[ξY]ECG-NH2; thioether N-13), for which the IC50 lay in the range of 1 to 9.9 nM.

In the case of `CCCC[C@H]1C(=O)N(C)[C@@H](CCCC)C(=O)N[C@H](C)C(=O)N[C@H](C(=O)NCC(N)=O)CSCC(=O)N[C@@H](Cc2ccc(O)cc2)C(=O)N(C)[C@@H](C)C(=O)N[C@@H](CC(N)=O)C(=O)N2CCC[C@H]2C(=O)N[C@@H](Cc2c[nH]cn2)C(=O)N[C@@H](CCC(=O)O)C(=O)N2C[C@H](O)C[C@H]2C(=O)N[C@@H](Cc2c[nH]c3ccccc23)C(=O)N[C@@H](CCN)C(=O)N[C@@H](Cc2csc3ccccc23)C(=O)N1C` [Example 5159] ({CH2CO}-Y[NMeA]NPHE[Hyp]W[Dab][Bta][NMeNle][NMeNle][dA]CG-NH2; thioether N-14), the IC50 fell in the range of 1 to 9.9 nM.

With `CCCC[C@H]1C(=O)N2CCC[C@@H]2C(=O)N[C@@H](CC(=O)O)C(=O)N[C@@H](C(C)C)C(=O)N(C)[C@@H](C(C)C)C(=O)N[C@@H](CCC(N)=O)C(=O)N2CCCC[C@@H]2C(=O)N[C@@H](Cc2c[nH]c3ccccc23)C(=O)N[C@@H](Cc2ccc(O)cc2)C(=O)N[C@@H](CC(C)C)C(=O)N[C@H](C(=O)NCC(N)=O)CSCC(=O)N[C@@H](Cc2ccc(F)cc2)C(=O)N(C)[C@@H](Cc2ccccc2)C(=O)N1C` [Example 9246] ({CH2CO}-[Phe(4-F)][NMeF][NMeNle][dP]DV[NMeV]Q[dPip]WYLCG-NH2; thioether N-13), the IC50 lay within 1000 to 10000 nM.

For `CCCC[C@H]1C(=O)N2C[C@@H](O)C[C@@H]2C(=O)N[C@@H](CC(=O)O)C(=O)N[C@@H](C(C)C)C(=O)N(C)[C@H](Cc2ccccc2)C(=O)N[C@@H](Cc2ccc(O)cc2)C(=O)N2C[C@@H](O)C[C@@H]2C(=O)N[C@@H](Cc2c[nH]c3ccccc23)C(=O)N[C@@H](Cc2ccc(O)cc2)C(=O)N[C@@H](CCCN)C(=O)N[C@H](C(=O)NCC(N)=O)CSCC(=O)N[C@@H](Cc2ccc(F)c(F)c2)C(=O)N(C)[C@@H](Cc2ccccc2)C(=O)N1C` [Example 9232] ({CH2CO}-[Phe(3,4-F2)][NMeF][NMeNle][dHyp]DV[dNMeF]Y[dHyp]WY[Orn]CG-NH2; thioether N-13), the IC50 was 1 to 9.9 nM.

For `CCCC[C@H]1C(=O)N(C)[C@@H](CCCC)C(=O)N[C@@H](CCCNC(=N)N)C(=O)NC(C(=O)NCC(N)=O)CSCC(=O)N[C@@H](Cc2ccc(O)cc2)C(=O)N(C)[C@@H](C)C(=O)N[C@@H](Cc2cnc[nH]2)C(=O)N2CCC[C@H]2C(=O)N[C@@H](CC(N)=O)C(=O)N[C@@H](CC(C)C)C(=O)N2C[C@H](O)C[C@H]2C(=O)N[C@@H](Cc2c[nH]c3ccccc23)C(=O)N[C@@H](CO)C(=O)N[C@@H](Cc2c[nH]c3ccccc23)C(=O)N1C` (some centres unmarked) [Example 9146] ({CH2CO}-Y[NMeA]HPNL[Hyp]WSW[NMeNle][NMeNle]R[ξC]G-NH2; thioether N-14), the IC50 lay in the range of 1 to 9.9 nM.

As for `CCCC[C@H]1C(=O)N(C)[C@@H](CCCC)C(=O)N[C@@H](CCC(=O)O)C(=O)N[C@H](C(=O)NCC(N)=O)CSCC(=O)N[C@@H](Cc2ccc(O)cc2)C(=O)N2C[C@H](O)C[C@H]2C(=O)N[C@@H](CC(N)=O)C(=O)N2CCC[C@H]2C(=O)N[C@@H](Cc2cnc[nH]2)C(=O)N[C@@H](CCC(=O)O)C(=O)N2C[C@H](O)C[C@H]2C(=O)N[C@@H](Cc2c[nH]c3ccccc23)C(=O)N[C@@H](CO)C(=O)N[C@@H](Cc2c[nH]c3ccccc23)C(=O)N1C` [Example 1283] ({CH2CO}-Y[Hyp]NPHE[Hyp]WSW[NMeNle][NMeNle]ECG-NH2; thioether N-14), the IC50 was in the range of 10 to 99.9 nM.

The same experiment, now with this note: PD-L1-His 10 nM, PD-1-Ig 20 nM; read-out: HTRF Human PD-L1/PD-1 Binding Assay IC50.
For the compound `CCCC[C@H]1C(=O)N[C@@H](CO)C(=O)N[C@H](C(=O)NCC(N)=O)CSCC(=O)N[C@@H](Cc2ccc(O)cc2)C(=O)N(C)[C@@H](C)C(=O)N[C@@H](CC(N)=O)C(=O)N2CCC[C@H]2C(=O)N[C@@H](Cc2c[nH]cn2)C(=O)N[C@@H](CCC(N)=O)C(=O)N2C[C@H](O)C[C@H]2C(=O)N[C@@H](Cc2c[nH]c3ccccc23)C(=O)N[C@@H](CO)C(=O)N[C@@H](Cc2c[nH]c3ccccc23)C(=O)N(C)[C@@H](CCOC)C(=O)N1C` [Example 10138] ({CH2CO}-Y[NMeA]NPHQ[Hyp]WSW[NMehSer](Me)[NMeNle]SCG-NH2; thioether N-14), the IC50 was 180 nM.
